Measurements published in US11077090B2, “Compounds and compositions and uses thereof” (Sunovion Pharmaceuticals Inc., priority 2016, dated 2021).
Where two headings read alike, the source gives them in different places.

Test system: compound-treated mice
Test: Neuropharmacological assay (SmartCube): behavioral activity signature and minimal effective dose
Format: in vivo
Details: for minimal effective dose: Mus musculus, ip; for AD: ADHD (probability of activity signature) / AG: analgesic (probability of activity signature) / AX: anxiolytic (probability of activity signature) / CE: cognitive enhancer (probability of activity signature) / DP: anti-depressant (probability of activity signature) / MS: mood stabilizer (probability of activity signature) / PS: anti-psychotic (probability of activity signature) / SD: sedative hypnotic (probability of activity signature) / UN: uncharacterized CNS activity (probability of activity signature): i.p. 15 min before test, most efficacious dose(s)
In short: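 Mice dosed i.p. 15 min before test, compound in N-methyl-2-pyrrolidone/PEG/propylene glycol, 3 doses; video-captured behavior matched to reference-drug signatures, giving per-class probabilities at most efficacious dose. MED from doses typically 0.3–30 mpk, defined as lowest dose with ≥50% total activity.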

[1] = MED = dose having 50% or more total activity, read-out: Potency: minimal effective dose (MED)

SMILES | minimal effective dose [1] [mg/kg] | AD: ADHD (probability of activity signature) | AG: analgesic (probability of activity signature) | AX: anxiolytic (probability of activity signature) | CE: cognitive enhancer (probability of activity signature) | DP: anti-depressant (probability of activity signature) | MS: mood stabilizer (probability of activity signature) | PS: anti-psychotic (probability of activity signature) | SD: sedative hypnotic (probability of activity signature) | UN: uncharacterized CNS activity (probability of activity signature) | Potency: minimal effective dose (MED) (MED = dose having 50% or more total activity) | minimal effective dose (MED = dose having 50% or more total activity, read-out: Potency: minimal effective dose (MED), binned) [mg/kg]
Cc1ccc2c(c1C)[C@@H](N)COC2 [Example 136] | 3 to 10 | + (LOQ ≤ + <5%) | ++ (5% ≤ ++ <25%) | ++ (5% ≤ ++ <25%) | ++ (5% ≤ ++ <25%) | ++ (5% ≤ ++ <25%) | + (LOQ ≤ + <5%) | ++ (5% ≤ ++ <25%) | + (LOQ ≤ + <5%) | +++ (25% ≤ +++ <50%) | – | –
CN[C@@H]1COCc2ccc(OC)cc21 [Example 139] | 3 to 10 | + (LOQ ≤ + <5%) | ++ (5% ≤ ++ <25%) | ++ (5% ≤ ++ <25%) | ++ (5% ≤ ++ <25%) | ++ (5% ≤ ++ <25%) | + (LOQ ≤ + <5%) | ++ (5% ≤ ++ <25%) | + (LOQ ≤ + <5%) | +++ (25% ≤ +++ <50%) | – | –
CN[C@H]1COCc2ccc(OC)cc21 [Example 140] | 10 to 30 | + (LOQ ≤ + <5%) | ++ (5% ≤ ++ <25%) | ++ (5% ≤ ++ <25%) | ++ (5% ≤ ++ <25%) | ++ (5% ≤ ++ <25%) | ++ (5% ≤ ++ <25%) | +++ (25% ≤ +++ <50%) | + (LOQ ≤ + <5%) | + (LOQ ≤ + <5%) | – | –
CN[C@@H]1COCc2ccc(C)cc21 [Example 141] | 3 to 10 | + (LOQ ≤ + <5%) | ++ (5% ≤ ++ <25%) | +++ (25% ≤ +++ <50%) | ++ (5% ≤ ++ <25%) | ++ (5% ≤ ++ <25%) | ++ (5% ≤ ++ <25%) | ++ (5% ≤ ++ <25%) | + (LOQ ≤ + <5%) | +++ (25% ≤ +++ <50%) | – | –
CN[C@H]1COCc2ccc(C)cc21 [Example 142] | 3 to 10 | + (LOQ ≤ + <5%) | ++ (5% ≤ ++ <25%) | ++ (5% ≤ ++ <25%) | ++ (5% ≤ ++ <25%) | ++ (5% ≤ ++ <25%) | + (LOQ ≤ + <5%) | + (LOQ ≤ + <5%) | + (LOQ ≤ + <5%) | ++++ (50% ≤ ++++) | – | –
CN[C@@H]1COCc2ccc(C)c(C)c21 [Example 143] | 3 to 10 | + (LOQ ≤ + <5%) | +++ (25% ≤ +++ <50%) | ++ (5% ≤ ++ <25%) | ++ (5% ≤ ++ <25%) | ++ (5% ≤ ++ <25%) | + (LOQ ≤ + <5%) | + (LOQ ≤ + <5%) | ++ (5% ≤ ++ <25%) | ++ (5% ≤ ++ <25%) | – | –
CN[C@H]1COCc2ccc(C)c(C)c21 [Example 144] | 3 to 10 | + (LOQ ≤ + <5%) | ++ (5% ≤ ++ <25%) | ++ (5% ≤ ++ <25%) | ++ (5% ≤ ++ <25%) | ++ (5% ≤ ++ <25%) | + (LOQ ≤ + <5%) | ++ (5% ≤ ++ <25%) | ++ (5% ≤ ++ <25%) | +++ (25% ≤ +++ <50%) | – | –
CN[C@@H]1COCc2cccc(Cl)c21 [Example 145] | – | + (LOQ ≤ + <5%) | ++ (5% ≤ ++ <25%) | ++ (5% ≤ ++ <25%) | ++ (5% ≤ ++ <25%) | + (LOQ ≤ + <5%) | + (LOQ ≤ + <5%) | + (LOQ ≤ + <5%) | + (LOQ ≤ + <5%) | +++ (25% ≤ +++ <50%) | C (>10 to ≤30 mpk) | –
CN[C@H]1COCc2cccc(Cl)c21 [Example 146] | 3 to 10 | + (LOQ ≤ + <5%) | ++ (5% ≤ ++ <25%) | +++ (25% ≤ +++ <50%) | ++ (5% ≤ ++ <25%) | + (LOQ ≤ + <5%) | + (LOQ ≤ + <5%) | + (LOQ ≤ + <5%) | + (LOQ ≤ + <5%) | ++ (5% ≤ ++ <25%) | – | –
CN[C@@H]1COCc2ccc(Cl)c(Cl)c21 [Example 147] | 3 to 10 | + (LOQ ≤ + <5%) | ++ (5% ≤ ++ <25%) | ++ (5% ≤ ++ <25%) | + (LOQ ≤ + <5%) | ++ (5% ≤ ++ <25%) | + (LOQ ≤ + <5%) | + (LOQ ≤ + <5%) | + (LOQ ≤ + <5%) | ++++ (50% ≤ ++++) | – | –
CN[C@H]1COCc2ccc(Cl)c(Cl)c21 [Example 148] | 3 to 10 | + (LOQ ≤ + <5%) | ++ (5% ≤ ++ <25%) | ++ (5% ≤ ++ <25%) | ++ (5% ≤ ++ <25%) | ++ (5% ≤ ++ <25%) | ++ (5% ≤ ++ <25%) | ++ (5% ≤ ++ <25%) | ++ (5% ≤ ++ <25%) | +++ (25% ≤ +++ <50%) | – | –
CN[C@@H]1COCc2c(Cl)cccc21 [Example 149] | < 3 | + (LOQ ≤ + <5%) | ++ (5% ≤ ++ <25%) | ++ (5% ≤ ++ <25%) | ++ (5% ≤ ++ <25%) | ++ (5% ≤ ++ <25%) | + (LOQ ≤ + <5%) | +++ (25% ≤ +++ <50%) | ++ (5% ≤ ++ <25%) | +++ (25% ≤ +++ <50%) | – | –
Cc1ccc2c(c1)[C@H](N)[C@@H](C)OC2 [Example 155] | 3 to 10 | + (LOQ ≤ + <5%) | ++ (5% ≤ ++ <25%) | ++++ (50% ≤ ++++) | ++ (5% ≤ ++ <25%) | ++ (5% ≤ ++ <25%) | + (LOQ ≤ + <5%) | ++ (5% ≤ ++ <25%) | ++ (5% ≤ ++ <25%) | ++ (5% ≤ ++ <25%) | – | –
Cc1ccc2c(c1)[C@@H](N)[C@H](C)OC2 [Example 156] | 3 to 10 | + (LOQ ≤ + <5%) | ++ (5% ≤ ++ <25%) | ++ (5% ≤ ++ <25%) | ++ (5% ≤ ++ <25%) | + (LOQ ≤ + <5%) | + (LOQ ≤ + <5%) | + (LOQ ≤ + <5%) | + (LOQ ≤ + <5%) | +++ (25% ≤ +++ <50%) | – | –
C[C@H]1OCc2cccc(Cl)c2[C@@H]1N [Example 159] | – | + (LOQ ≤ + <5%) | + (LOQ ≤ + <5%) | +++ (25% ≤ +++ <50%) | + (LOQ ≤ + <5%) | +++ (25% ≤ +++ <50%) | + (LOQ ≤ + <5%) | + (LOQ ≤ + <5%) | + (LOQ ≤ + <5%) | ++ (5% ≤ ++ <25%) | – | 3 to 10
